In patent US20090311237A1, “Combination therapy using a soluble hyaluronidase and a bisphosphonate” (priority 2008, published 2009):
Like-named read-outs stand apart in the source and are kept apart here.

Experiment: Pharmacokinetics of ZA in pig serum after IV or SC infusion with or without rHuPH20 (LC-MS-MS, non-compartmental analysis)
Format: in vivo
Conditions: female, Yorkshire, pig, serum, […], pig; for bioavailability / Tmax / half-life / Vd/F: sc, SC ZA […], no rHuPH20 (Study Group 2), n=4; for concentration at 0.05 h / concentration at 5 min / concentration at 0.333 h / concentration at 0.5 h / concentration at 1 h: subcutaneous, Study Group 2, SC, ZA […], rHuPH20 0 U/mL, read-out: Zoledronic Acid Serum Concentration
Description: A pharmacokinetic study of zoledronic acid (ZA) co-administered with rHuPH20 in female Yorkshire swines was conducted. The primary objective of the study was to determine the bioavailability of zoledronic acid dosed via subcutaneous (SC) co-administration with human recombinant hyaluronidase PH20 (rHuPH20) and to compare the overall exposure to an equivalent IV dose.
Animals in Study Group 1 were dosed with 0.15 mg/kg ZA given via a 20-minute IV infusion. Animals in Study Groups 2 and 3 were dosed subcutaneously (SC) with 0.15 mg/kg ZA without and with rHuPH20, respectively, in different SC delivery volumes.
Following ZA dose administration, serial blood samples were collected via vascular access ports (VAPs) for serum preparation and determination of ZA concentrations. Blood collection times were at 1, 3, 5, 10, 15, 20, 30, 45, and 60 minutes, and at 1.5, 2, 3, 4, 6, 8, 10, 24, 48, and 72 hours post dose. Urine samples were also collected to compare excretion characteristics between IV and SC routes of administration. Collection times for urine were at 15 minutes before dosing (−15 min.), continuously from dose initiation to 2 hours post dose, and at 4, 6, 8, and 24 hours post dose thereafter.
Serum concentration of ZA was determined using a qualified LC-MS-MS assay after derivatization with diazomethane (Zhu, L S et al. (2006) Rapid Commun. Mass Spectrom. 20: 3421-3426; “Qualification Data of An LC-MS/MS Method for the Determination of Zoledronate in Porcine Serum”, MDS Pharma Services Study No. AA43671-01, Report Date 14 Sep. 2007). The assay range was from 2.0 to 400 ng/mL with a lower limit of quantitation (LLOQ) at 2.0 ng/mL. Urine concentration of ZA was determined by a similar well qualified LC-MS-MS method (“Qualification Data of An LC-MS/MS Method for the Determination of Zoledronate in Porcine Urine”, MDS Pharma Services Study No. AA43671-02, Report Date 14 Sep. 2007) with an assay LLOQ at 10 ng/mL.
Pharmacokinetic (PK) analyses of ZA serum concentration versus time data were conducted using WinNonlin v5.1 (Pharsight, Mountain View, Calif.). Non-compartmental analysis was used for derivation of primary and secondary pharmacokinetic (PK) parameters. AUC, Cmax, and Tmax were compared between dose routes, between co-administration with rHuPH20, and with dose of rHuPH20.

O=P(O)(O)C(O)(Cn1ccnc1)P(=O)(O)O [ZA, 1-hydroxy-2-(1H-imidazol-1-yl)ethylidene-1,1-bisphosphonic acid]
bioavailability (read-out: SC Bioavailability (0-8 h), mean): 87.7 ± 15%
bioavailability (read-out: SC Bioavailability (0-8 h), median): 86.9%
Tmax (read-out: Tmax, mean): 12.6 min
Tmax (read-out: Tmax, median): 10.2 min
half-life (read-out: T½ λz, mean (converted)): 64.2 ± 14.4 min
half-life (read-out: T½ λz, median (converted)): 59.4 min
Vd/F (read-out: Vss/F, mean): 0.607 L/kg
Vd/F (read-out: Vss/F, median): 0.625 L/kg
Vd/F (read-out: Vz/F, mean): 0.784 L/kg
Vd/F (read-out: Vz/F, median): 0.832 L/kg
concentration at 0.05 h (pig ID 59, 100 mL, 16 min): 13.9 ng/mL
concentration at 0.05 h (pig ID 60, 100 mL, 16 min): 51.5 ng/mL
concentration at 0.05 h (pig ID 62, 50 mL, 8 min): 97.6 ng/mL
concentration at 0.05 h (pig ID 69, 25 mL, 4 min): 144 ng/mL
concentration at 0.05 h (pig ID 70, 10 mL, 1.6 min): 174 ng/mL
concentration at 5 min (pig ID 59, 100 mL, 16 min): 32.4 ng/mL
concentration at 5 min (pig ID 60, 100 mL, 16 min): 85 ng/mL
concentration at 0.333 h (pig ID 59, 100 mL, 16 min): 130 ng/mL
concentration at 0.333 h (pig ID 60, 100 mL, 16 min): 255 ng/mL
concentration at 0.333 h (pig ID 62, 50 mL, 8 min): 208 ng/mL
concentration at 0.333 h (pig ID 69, 25 mL, 4 min): 210 ng/mL
concentration at 0.333 h (pig ID 70, 10 mL, 1.6 min): 233 ng/mL
concentration at 0.5 h (pig ID 59, 100 mL, 16 min): 120 ng/mL
concentration at 0.5 h (pig ID 60, 100 mL, 16 min): 211 ng/mL
concentration at 0.5 h (pig ID 62, 50 mL, 8 min): 149 ng/mL
concentration at 0.5 h (pig ID 69, 25 mL, 4 min): 115 ng/mL
concentration at 0.5 h (pig ID 70, 10 mL, 1.6 min): 191 ng/mL
concentration at 1 h (pig ID 59, 100 mL, 16 min): 44.6 ng/mL
concentration at 1 h (pig ID 60, 100 mL, 16 min): 149 ng/mL
concentration at 1 h (pig ID 62, 50 mL, 8 min): 81.6 ng/mL
concentration at 1 h (pig ID 69, 25 mL, 4 min): 74.6 ng/mL
